Counter-ions that a name gives are not always drawn. Like-named read-outs stand apart in the source and are kept apart here.
Legend:
Format in all cases: cell-based
[1] = tested on: Trichophyton rubrum MYA4498; test: Morphological effects of antifungal preparations on dermatophyte hyphae in vitro (calcofluor white microscopy); conditions: T. rubrum hyphae; for Week 1 Change in morphology If yes, description of change: hydrochloride
Aspergillus fumigatus = test: Minimum inhibitory concentration (MIC100), CLSI M38-A2 broth dilution
Method: (§1) Antifungal activity of the antifungal formulations of the invention against dermatophytes, as compared to terbinafine hydrochloride alone, is determined in various dermatophytes known to cause onychomycosis, including Trichophyton rubrum, T. mentagrophytes, and Epidermophyton floccosum. Antifungal activity of the antifungal formulations of the invention as compared to terbinafine hydrochloride alone, was determined in various pathogenic fungi, including Aspergillus flavus and Aspergillus fumigatus. Antifungal activity of the antifungal formulations of the invention was measured by the minimum inhibitory concentration (MIC). Antifungal activity can also be measured by minimum fungicidal concentration (MFC).
(§2) Several strains of Aspergillus flavus, Aspergillus fumigatus, and Candida albicans were tested. Trichophyton rubrum MYA4498 and T. mentagrophytes MYA4439, the QC isolates approved by the Clinical and Laboratory Standards Institute (CLSI) for dermatophyte susceptibility testing, can also be tested.
(§3) MIC testing was performed according to the CLSI M38A2 standard for the susceptibility testing of dermatophytes developed at the Center for Medical Mycology (See, Ghannoum et al., 2004, J Clin Microbial. 42(7): 2977-2979 CLSI, Reference Method for Broth Dilution Antifungal Susceptibility Testing of Filamentous Fungi: Approved Standard-Second Edition. CLSI document M38-A2 [ISBN 1-56238-668-9]. CLSI, 940 West Valley Road, Suite 1400, Wayne, Pa. 19087-1898 USA, 2008). Briefly, RPMI was the test medium, incubation temperature and time was 35° C. and 24 hours or 48 hours, respectively, and the inoculum size was 1-3×10^3 conidia/ml. The MIC endpoint was 100% inhibition as compared to the growth control.
(§4) The MIC range, MIC100 (defined as the minimum concentration required to inhibit 100% of the isolates tested), for the antifungal preparations of the invention and comparators was computed. The MFC range, MFC50, MFC90, and MFC100 for the antifungal preparations of the invention and comparators can also be computed.
(§5) In this example, the terbinafine formulation of the invention comprises terbinafine formulated with a phospholipid and a surfactant.

Aspergillus flavus = test: as above
Method: as §1, §2, §3, §4, §5

[2] = tested on: Trichophyton rubrum MYA4498; test: Morphological effects of antifungal preparations on dermatophyte hyphae in vitro (calcofluor white microscopy); conditions: T. rubrum hyphae; for Week 1 Change in morphology If yes, description of change: hydrochloride; remark: listed apart in the source
Method: The morphological changes to dermatophyte hyphae following exposure to an antifungal formulation of the invention, specifically a terbinafine formulation, compared to terbinafine hydrochloride solution in vitro were evaluated.
Trichophyton rubrum MYA4498, one of the quality control isolates approved by the Clinical and Laboratory Standards Institute (CLSI) for dermatophyte susceptibility testing, was used as a test isolate throughout testing, (See, Ghannoum et al., 2004, J Clin Microbiol. 42(7): 2977-2979; Ghannoum et al., J Clin Microbiol. 44: 353-4350. Inoculum containing 3×10^3 conidia/ml of T. rubrum was prepared in RPMI-1640 buffered with MOPS (Hardy Diagnostics, Santa Maria. CA), added to the wells of microtiter plates (100 ul aliquots) and incubated at 35° C. for 2-3 days until good hyphal growth was achieved. Specific concentrations of 1 mg/ml, 3 mg/ml, and 15 mg/ml of terbinafine alone were prepared in RPMI-1640. The terbinafine hydrochloride (1 mg/ml. 3 mg/ml, and 15 mg/ml) and 15 mg/ml of a terbinafine formulation of the invention was added to the wells of the microtiter plates (100 ul aliquots) and re-incubated. Twenty plates for each drug were set up to ensure adequate sample for examination over several weeks; RPMI was added as needed to maintain the volume of each well at 200 ul.
At pre-determined intervals (24, 48, 72, and 96 hours and once weekly thereafter for a total of 12 weeks), a loopful of hyphal growth from the bottom of each well was removed to a glass microscope slide containing a drop of calcofluor white stain (fluorescent KOH) and covered with a cover slip. Slides were examined microscopically under both white light and UV light. Images from a representative field visualized under each light source were be recorded.
Samples showing significant differences in morphology between exposure of a terbinafine formulation vs. terbinafine alone were further examined under Scanning Electron Microscopy (SEM). Preparation of samples for SEM were performed following previously established methodology (see. Chandra et al., 2001. J. Dent. Res. 80:903-908).

SMILES: CN(C/C=C/C#CC(C)(C)C)Cc1cccc2ccccc12 [Terbinafine hydrochloride, terbinafine hydrochloride]
- morphological changes observed ([1]; 1 μg/mL, 24, 48, 72 and 96 hours): no morphological changes
- 24 hour Change in morphology If yes, description of change ([1]; 1 μg/mL): no
- 48 hour Change in morphology If yes, description of change ([1]; 1 μg/mL): no
- 72 hour Change in morphology If yes, description of change ([1]; 1 μg/mL): no
- 96 hour Change in morphology If yes, description of change ([1]; 1 μg/mL): no
- Week 1 Change in morphology If yes, description of change ([1]; 1 μg/mL, listed as Terbinafine): Yes: hyphae under
- Week 1 Change in morphology If yes, description of change ([1]; 1 μg/mL, listed as terbinafine): had vacuoles within the hyphae
- Week 2 Change in morphology If yes, description of change ([1]; 1 μg/mL, Week 2): Yes: hyphae under
- 24 hour Change in morphology If yes, description of change ([1]; 3 mg/mL): no
- 48 hour Change in morphology If yes, description of change ([1]; 3 mg/mL): no
- 72 hour Change in morphology If yes, description of change ([1]; 3 mg/mL): no
- 96 hour Change in morphology If yes, description of change ([1]; 3 mg/mL): no
- MIC (Aspergillus fumigatus; 24 h, A. fumigatus strain MRL No. 2456, 24 hours, read-out: MIC100 (μg/mL) in 24 hours): 0.25 µg/mL
- MIC (Aspergillus fumigatus; 24 h, A. fumigatus strain MRL No. 2471, 24 hours, read-out: MIC100 (μg/mL) in 24 hours): 0.25 µg/mL
- MIC (Aspergillus fumigatus; 24 h, A. fumigatus strain MRL No. 2574, 24 hours, read-out: MIC100 (μg/mL) in 24 hours): 0.5 µg/mL
- MIC (Aspergillus fumigatus; 24 h, A. fumigatus strain MRL No. 16621, 24 hours, read-out: MIC100 (μg/mL) in 24 hours): 0.5 µg/mL
- MIC (Aspergillus fumigatus; 24 h, A. fumigatus strain MRL No. 16629, 24 hours, read-out: MIC100 (μg/mL) in 24 hours): 0.5 µg/mL
- MIC (Aspergillus fumigatus; 48 h, A. fumigatus strain MRL No. 2456, 48 hours, read-out: MIC100 (μg/mL) in 48 hours): 234 µg/mL
- MIC (Aspergillus fumigatus; 48 h, A. fumigatus strain MRL No. 2471, 48 hours, read-out: MIC100 (μg/mL) in 48 hours): 234 µg/mL
- MIC (Aspergillus fumigatus; 48 h, A. fumigatus strain MRL No. 2574, 48 hours, read-out: MIC100 (μg/mL) in 48 hours): 234 µg/mL
- MIC (Aspergillus fumigatus; 48 h, A. fumigatus strain MRL No. 16627, 48 hours, read-out: MIC100 (μg/mL) in 48 hours): 234 µg/mL
- MIC (Aspergillus fumigatus; 48 h, A. fumigatus strain MRL No. 16629, 48 hours, read-out: MIC100 (μg/mL) in 48 hours): 234 µg/mL
- MIC (Aspergillus flavus; 24 h, A. flavus strain MRL No. 17840, 24 hours, read-out: MIC100 (μg/mL) in 24 hours): 0.002 µg/mL
- MIC (Aspergillus flavus; 24 h, A. flavus strain MRL No. 17842, 24 hours, read-out: MIC100 (μg/mL) in 24 hours): 0.002 µg/mL
- MIC (Aspergillus flavus; 24 h, A. flavus strain MRL No. 18736, 24 hours, read-out: MIC100 (μg/mL) in 24 hours): 6e-05 µg/mL
- MIC (Aspergillus flavus; 24 h, A. flavus strain MRL No. 18743, 24 hours, read-out: MIC100 (μg/mL) in 24 hours): 0.008 µg/mL
- MIC (Aspergillus flavus; 24 h, A. flavus strain MRL No. 18744, 24 hours, read-out: MIC100 (μg/mL) in 24 hours): 0.008 µg/mL
- MIC (Aspergillus flavus; 48 h, A. flavus strain MRL No. 17840, 48 hours, read-out: MIC100 (μg/mL) in 48 hours): 0.004 µg/mL
- MIC (Aspergillus flavus; 48 h, A. flavus strain MRL No. 17842, 48 hours, read-out: MIC100 (μg/mL) in 48 hours): 0.002 µg/mL
- MIC (Aspergillus flavus; 48 h, A. flavus strain MRL No. 18736, 48 hours, read-out: MIC100 (μg/mL) in 48 hours): 0.002 µg/mL
- MIC (Aspergillus flavus; 48 h, A. flavus strain MRL No. 18743, 48 hours, read-out: MIC100 (μg/mL) in 48 hours): 0.015 µg/mL
- MIC (Aspergillus flavus; 48 h, A. flavus strain MRL No. 18744, 48 hours, read-out: MIC100 (μg/mL) in 48 hours): 0.002 µg/mL
- morphological changes observed ([2]; 3 mg/mL, 24, 48, 72 and 96 hours): no morphological changes
- Week 1 Change in morphology If yes, description of change ([2]; 3 mg/mL): no presence of vacuoles within the hyphae
- Week 1 Change in morphology If yes, description of change ([2]; 3 mg/mL, listed as Tcrbinafine): no
- Week 2 Change in morphology If yes, description of change ([2]; 3 mg/mL): Yes: hyphae under
- 24 hour Change in morphology If yes, description of change ([2]; 15 mg/mL, 24 hour): no
- 48 hour Change in morphology If yes, description of change ([2]; 15 mg/mL, 48 hour): no
- 72 hour Change in morphology If yes, description of change ([2]; 15 mg/mL, 72 hour): no
- 96 hour Change in morphology If yes, description of change ([2]; 15 mg/mL, 96 hour): no
- Week 1 Change in morphology If yes, description of change ([2]; 15 mg/mL, listed as Terbinafine): no
- Week 1 Change in morphology If yes, description of change ([2]; 15 mg/mL, listed as terbinafine): no presence of vacuoles within the hyphae
- Week 2 Change in morphology If yes, description of change ([2]; 15 mg/mL): no

From US20120245107A1, “METHODS OF REDUCING THE PROLIFERATION AND VIABLILITY OF MICROBIAL AGENTS” (Targeted Delivery Technologies Limited, priority 2009, published 2012)
